Assay results from ChEMBL document CHEMBL5518204, “Discovery and Proof of Concept of Potent Dual Polθ/PARP Inhibitors for Efficient Treatment of Homologous Recombination-Deficient Tumors” (J Med Chem, 2024).
Active and inactive are the calls of the source. The calls are words filed in the database; no cut-off is given here.

Legend:
MDA-MB-231 [1] = test: Antitumor activity against human MDA-MB-231 cells xenografted in ip dosed BALB/c mouse assessed as increase in gammaH2Ax expression administered for 21 days; assay type: functional, organism-based; details: dose 20-40 mg/kg, time 21.0 day
[2] = Stability in rat plasma assessed as half life; assay type: ADME, cell-free
[3] = molecular target: T1, Protein mono-ADP-ribosyltransferase PARP3 (Homo sapiens, UniProt Q9Y6F1); test: Inhibition of PARP3 (unknown origin)
T1 sequence (Q9Y6F1 whole entry): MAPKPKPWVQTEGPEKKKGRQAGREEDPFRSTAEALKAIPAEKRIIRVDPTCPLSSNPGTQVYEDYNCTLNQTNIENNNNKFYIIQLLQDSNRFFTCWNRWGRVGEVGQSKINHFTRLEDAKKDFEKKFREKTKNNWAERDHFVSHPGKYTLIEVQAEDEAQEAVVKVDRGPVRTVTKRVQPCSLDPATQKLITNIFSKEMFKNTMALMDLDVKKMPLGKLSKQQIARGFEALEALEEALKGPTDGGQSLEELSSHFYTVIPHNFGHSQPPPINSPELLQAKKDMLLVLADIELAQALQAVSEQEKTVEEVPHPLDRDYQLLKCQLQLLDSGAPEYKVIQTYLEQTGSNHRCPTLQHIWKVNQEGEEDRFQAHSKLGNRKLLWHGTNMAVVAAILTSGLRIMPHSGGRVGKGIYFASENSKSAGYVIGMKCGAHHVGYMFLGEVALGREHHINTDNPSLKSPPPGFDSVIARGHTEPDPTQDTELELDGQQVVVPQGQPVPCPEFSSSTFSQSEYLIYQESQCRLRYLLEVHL

[4] = molecular target: T2, Protein mono-ADP-ribosyltransferase PARP10 (Homo sapiens, UniProt Q53GL7); test: Inhibition of PARP10 (unknown origin)
T2 sequence (Q53GL7 whole entry): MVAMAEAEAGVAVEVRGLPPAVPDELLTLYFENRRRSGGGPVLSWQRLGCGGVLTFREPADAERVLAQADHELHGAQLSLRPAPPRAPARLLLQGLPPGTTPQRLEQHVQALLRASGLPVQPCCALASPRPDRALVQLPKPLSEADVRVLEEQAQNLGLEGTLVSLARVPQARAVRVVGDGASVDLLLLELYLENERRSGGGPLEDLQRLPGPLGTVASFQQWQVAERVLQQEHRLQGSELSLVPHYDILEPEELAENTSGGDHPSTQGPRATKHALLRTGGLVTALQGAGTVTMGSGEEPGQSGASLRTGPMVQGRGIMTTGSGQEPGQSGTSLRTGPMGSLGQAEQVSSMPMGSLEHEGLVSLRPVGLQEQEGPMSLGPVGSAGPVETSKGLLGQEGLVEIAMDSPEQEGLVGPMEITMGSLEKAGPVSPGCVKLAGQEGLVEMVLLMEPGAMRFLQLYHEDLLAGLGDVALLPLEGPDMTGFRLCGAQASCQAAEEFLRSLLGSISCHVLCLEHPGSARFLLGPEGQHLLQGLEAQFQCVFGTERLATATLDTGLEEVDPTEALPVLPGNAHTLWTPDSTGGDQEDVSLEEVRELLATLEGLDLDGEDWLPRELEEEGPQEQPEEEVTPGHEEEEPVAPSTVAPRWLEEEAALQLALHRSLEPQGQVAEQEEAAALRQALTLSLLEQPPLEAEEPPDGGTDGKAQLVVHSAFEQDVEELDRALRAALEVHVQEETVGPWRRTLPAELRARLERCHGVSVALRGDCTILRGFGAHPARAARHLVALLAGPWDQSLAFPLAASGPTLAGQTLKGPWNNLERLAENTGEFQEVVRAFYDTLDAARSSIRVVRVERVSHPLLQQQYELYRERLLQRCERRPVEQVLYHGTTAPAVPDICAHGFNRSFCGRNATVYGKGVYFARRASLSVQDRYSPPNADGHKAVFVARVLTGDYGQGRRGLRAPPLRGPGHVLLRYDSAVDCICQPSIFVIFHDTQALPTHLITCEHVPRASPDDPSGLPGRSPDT

HCC1937 = test: Antiproliferative activity against BRCA1-deficient human HCC1937 cells assessed as inhibition of cell proliferation incubated for 5 days by MTT assay; assay type: functional, cell-based; details: HCC1937, 120 h
[5] = Toxicity in BALB/c mouse xenografted with human MDA-MB-231 cells assessed as increase in body weight at 20 to 40 mg/kg, ip administered for 21 days; assay type: organism-based; details: in vivo, 504 h, dose 20-40 mg/kg, time 21 day
[6] = Volume of distribution at steady state in Sprague-Dawley rat at 1 mg/kg, iv by LC-MS/MS analysis; assay type: ADME, organism-based; details: in vivo, read-out: Vdss
MDA-MB-231 [7] = test: Induction of DNA damage in human MDA-MB-231 cells assessed as increase in tail intensity at 2 uM incubated for 3 days by florescence microscopic analysis; assay type: functional, cell-based; details: time 3.0 day
SK-OV-3 = test: Antiproliferative activity against BRCA-proficient human SK-OV-3 cells assessed as inhibition of cell proliferation incubated for 5 days by MTT assay; assay type: functional, cell-based; details: SK-OV-3, 120 h
[8] = Metabolic stability in rat liver microsome assessed as intrinsic clearance; assay type: ADME; details: liver microsomes, read-out: CLH
[9] = Toxicity in BALB/c mouse xenografted with human MDA-MB-231 cells assessed as liver damage at 20 to 40 mg/kg, ip administered for 21 days by H and E staining based analysis; assay type: organism-based; details: in vivo, 504 h, dose 20-40 mg/kg, time 21 day
MDA-MB-231 [10] = test: Induction of DNA damage in human MDA-MB-231 cells assessed as increase in gammaH2AX foci at 2 uM incubated for 3 days by DAPI staining based confocal laser scanning microscopic analysis; assay type: functional, cell-based; details: time 3.0 day
[11] = molecular target: Poly [ADP-ribose] polymerase 2 (Homo sapiens, UniProt Q9UGN5); test: Inhibition of PARP2 (unknown origin)
Poly [ADP-ribose] polymerase 2, sequence (Q9UGN5 whole entry): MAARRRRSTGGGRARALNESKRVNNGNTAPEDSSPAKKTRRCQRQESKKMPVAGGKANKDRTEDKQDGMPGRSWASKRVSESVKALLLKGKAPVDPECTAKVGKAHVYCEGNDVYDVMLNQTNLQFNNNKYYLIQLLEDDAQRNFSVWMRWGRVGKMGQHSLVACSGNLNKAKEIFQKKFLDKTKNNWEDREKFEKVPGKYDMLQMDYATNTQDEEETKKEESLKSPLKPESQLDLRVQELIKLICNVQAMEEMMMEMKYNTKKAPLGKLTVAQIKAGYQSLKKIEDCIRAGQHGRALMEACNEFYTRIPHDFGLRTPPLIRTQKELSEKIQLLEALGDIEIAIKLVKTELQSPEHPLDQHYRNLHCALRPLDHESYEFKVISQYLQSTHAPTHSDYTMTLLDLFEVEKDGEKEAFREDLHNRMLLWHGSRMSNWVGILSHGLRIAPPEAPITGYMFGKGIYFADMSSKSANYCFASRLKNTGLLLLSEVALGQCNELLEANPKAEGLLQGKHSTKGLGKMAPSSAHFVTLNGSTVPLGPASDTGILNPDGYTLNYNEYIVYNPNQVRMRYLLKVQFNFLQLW

MCF-10A = test: Effect on PARP1 expression in human MCF-10A cells by immunoblotting analysis; assay type: functional, cell-based
[12] = Stability in mouse plasma assessed as half life; assay type: ADME, cell-free
[13] = Toxicity in BALB/c mouse xenografted with human MDA-MB-231 cells assessed as kidney damage at 20 to 40 mg/kg, ip administered for 21 days by H and E staining based analysis; assay type: organism-based; details: in vivo, 504 h, dose 20-40 mg/kg, time 21 day

## COc1ccc(Cl)cc1-c1cc(C)ncc1C(=O)Nc1nnc(OCC2CCN(C(=O)c3cc(Cc4n[nH]c(=O)c5ccccc45)ccc3F)CC2)s1
MDA-MB-231 [1]
  Activity: Dose-Dependent Effect
[2]
  half-life: 38.5 h
[3]
  IC50: 51.2 nM
[4]
  IC50: 1100 nM
HCC1937
  IC50: 20900 nM
[5]
  Activity: Non-Toxic
[6]
  Vd: 1.12 L/kg
MDA-MB-231 [7]
  Activity: Active
SK-OV-3
  IC50: 18900 nM
[8]
  CLint scaled: 802 mL/min/kg
[9]
  Activity: Non-Toxic
MDA-MB-231 [10]
  Activity: Active
[11]
  IC50: 2.3 nM
MCF-10A
  Activity: Active
[12]
  half-life: 38.5 h
[13]
  Activity: Non-Toxic
